Experimental data published in PubChem BioAssay (NCI).
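1) Cells in 96-well plates. 2) Compound, 48 h, 5 concentrations. 3) Linear interpolation between surrounding doses. 4) Unreached endpoint = highest concentration. Definition used: TGI = concentration required for complete inhibition of growth.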

How the values were obtained:
Test in all cases: growth of human tumour cells (NCI), 48 h
SN12C renal = system: SN12C renal
SNB-75 CNS = system: SNB-75 CNS
OVCAR-3 ovarian = system: OVCAR-3 ovarian
HCC-2998 colon = system: HCC-2998 colon
UACC-257 melanoma = system: UACC-257 melanoma
OVCAR-4 ovarian = system: OVCAR-4 ovarian
MALME-3M melanoma = system: MALME-3M melanoma
MDA-MB-231 breast = system: MDA-MB-231 breast
U251 CNS = system: U251 CNS
PC-3 prostate = system: PC-3 prostate
CAKI-1 renal = system: CAKI-1 renal
786-0 renal = system: 786-0 renal
UACC-62 melanoma = system: UACC-62 melanoma
MCF7 breast = system: MCF7 breast
NCI-H226 lung = system: NCI-H226 lung
A549 NSCLC = system: A549 NSCLC
NCI-H23 lung = system: NCI-H23 lung
SK-OV-3 ovarian = system: SK-OV-3 ovarian

SMILES | TGI (SN12C renal) | TGI (SNB-75 CNS) | TGI (OVCAR-3 ovarian) | TGI (HCC-2998 colon) | TGI (UACC-257 melanoma) | TGI (OVCAR-4 ovarian) | TGI (MALME-3M melanoma) | TGI (MDA-MB-231 breast) | TGI (U251 CNS) | TGI (PC-3 prostate) | TGI (CAKI-1 renal) | TGI (786-0 renal) | TGI (UACC-62 melanoma) | TGI (MCF7 breast) | TGI (NCI-H226 lung) | TGI (A549 NSCLC) | TGI (NCI-H23 lung) | TGI (SK-OV-3 ovarian)
CCC(NC(C)c1ccccc1)C(O)c1ccc(OCc2ccccc2)c(OCc2ccccc2)c1 (stereo not given) | 29.5 µM | 23.2 µM | 25.6 µM | 6.49 µM | 13.8 µM | 33.5 µM | 28.9 µM | 21.2 µM | 27.7 µM | 27.4 µM | 24.4 µM | 27.1 µM | 33.7 µM | 31.1 µM | 36.3 µM | 29.8 µM | 31.6 µM | 32.4 µM
O=C(N=S(NC(=O)c1ccccc1)C(Cl)(Cl)Cl)c1ccccc1 (stereo not given) | 56.2 µM | > 100 µM | > 77.7 µM | > 57.3 µM | 83.8 µM | 38 µM | 37.9 µM | > 100 µM | > 90.7 µM | > 100 µM | 54.9 µM | 54.9 µM | > 100 µM | 76.5 µM | > 58.6 µM | > 100 µM | 30 µM | > 31.6 µM
COC(=O)C1CC2(CCC1=O)Cc1ccccc1C2=O (stereo not given) | > 100 µM | > 100 µM |  | > 100 µM | > 100 µM | > 100 µM | > 100 µM | > 100 µM | > 100 µM | > 100 µM | > 100 µM | > 100 µM | > 100 µM | > 100 µM | > 100 µM | > 100 µM | > 100 µM | > 100 µM
COC(=O)C1C(OC(=O)c2ccccc2)CC2CCC1N2C(N)=O (stereo not given) | > 100 µM | > 100 µM | > 100 µM | > 100 µM | > 100 µM | > 100 µM | > 100 µM | > 100 µM | > 100 µM | > 100 µM | > 100 µM | > 100 µM | > 100 µM | > 100 µM | > 100 µM | > 100 µM | > 100 µM | > 100 µM
CC1(CCC2C=CCC2)CCCNC1=S (stereo not given) | > 10 µM | > 10 µM | > 10 µM | > 10 µM | > 10 µM |  | > 10 µM | > 10 µM | > 10 µM | > 10 µM |  | > 10 µM | > 10 µM | > 10 µM | > 10 µM | > 10 µM | > 10 µM | > 10 µM
COC(=O)c1ccc2c(O)c(O)ccc2c1 | 23 µM | 25.4 µM | 17 µM | 29.6 µM | 28.1 µM | 28.3 µM | 24.2 µM | 15.4 µM | 27.5 µM | 12.5 µM | 47.3 µM | 29.3 µM | 29.4 µM | 36.6 µM | 46.1 µM | 42 µM | 22.7 µM | 38.7 µM
